Structures are written as SMILES. Some results are limits rather than exact numbers.

This is an account of results in a melting point compilation (Tetko et al.; mined from patent text by program, amines drawn as free bases though some values may be those of a salt).

A word on the melting point: it is the temperature of the solid-liquid transition. Consider `O=C(CCCl)Nc1cccc2c1C(=O)c1c(NC(=O)CCCl)cccc1C2=O`, for which the melting point was in the range of 248 to 249 °C.

The compound `CC1=C(C#N)C(C)(c2ccccc2)C(C#N)=C(C)N1` showed a melting point of 195 to 196 °C.

`CC(C)(C)c1cc(-c2nn(CC3COC(=O)O3)c3ncccc23)cc(C(C)(C)C)c1O` (configuration not stated) displayed a melting point of 140 to 141 °C.

In turn, `COc1ccc(C[C@]2(C)C(=O)O[C@@H](c3ccccc3)N2C(=O)c2ccccc2)cc1` displayed a melting point of 128 to 129 °C.

Compound `CCNC(=O)CSc1nc(Cl)cc(Nc2cccc(C)c2C)n1` yielded a melting point of 191 to 192 °C.

Consider `Oc1cc2ccccc2cc1OCCOc1ccccc1`, for which the melting point is 141 to 142 °C.

The compound `O=C1CCC(N2C(=O)c3ccc([N+](=O)[O-])cc3C2=O)C(=O)N1` (configuration not stated) registered a melting point of 228 to 230 °C.

`Cc1c(C)c2c(c(C)c1NS(C)(=O)=O)C(c1ccc(C(C)C)cc1)CO2` (configuration not stated) showed a melting point of 132 to 133 °C.

Compound `Cc1cc(N)nc(CCCCNC(=O)c2c(O)cccc2O)c1` returned a melting point of 158 to 159 °C.

With `CSc1ccc(C=C2C(C)=C(CC(=O)O)c3cc(F)ccc32)cc1`, the melting point lay in the range of 187 to 188 °C.

`CCOC(=O)C(C(=O)Nc1ccc(Br)cc1C)=S(C)C`: the melting point lay in the range of 146 to 149 °C.

`CC(=O)OCC(=O)C1C(C)CC2C3CC(Cl)C4=CC(=O)C=CC4(C)C34OC4CC21C` (configuration not stated) came in with a melting point of 189 °C.

In turn, `COC(=O)c1c(C#N)ccc(NC(=NC#N)Nc2ccccc2Br)c1O` returned a melting point of 210 to 211 °C.

Compound `CC(C)(C)C(=O)Nc1cccc(P(c2ccccc2)c2cccc3ccccc23)n1` (configuration not stated) yielded a melting point of 55 °C.

Turning to `COc1ccc(C(=O)C[N+](=O)[O-])c(O)c1`, the melting point was 138 to 140 °C.

For the compound `COc1cc(Nc2c(C#N)cnc3cc(Cl)c([N+](=O)[O-])cc23)c(C)cc1Cl`, the melting point was in the range of 217 to 219 °C.

In the case of `CCS(=O)(=O)N[C@@H]1CCCC[C@H]1OCC(=O)O` (relative stereo), the melting point lay in the range of 120 to 122 °C.

`COC(=O)c1cc(Cl)c2c(c1Cl)OC(c1ccccc1)(c1ccccc1)O2`: the melting point lay within 69 to 70 °C.

`Cc1cc(Cl)cc(C(=O)NC2(C)CC2)c1NC(=O)c1cc(Br)nn1-c1ncccc1Cl` returned a melting point of over 250 °C.

`Nc1nc(COCC(F)(F)F)nc2nccnc12` gave a melting point of 145 to 147 °C.

On to `CC(C)(C)c1ccc(NC(=O)NCc2ccc3c(c2)CN(C2CCC(=O)NC2=O)C3=O)cc1` (configuration not stated), for which the melting point is 254 to 256 °C.

Take `COC(=O)CCC(=O)c1ccc(-c2ccc(C(C)(C)C)cc2)cc1`: the melting point lay within 58 to 62 °C.

In turn, `Cc1ccc(C(=O)Nc2cccc(C(F)(F)F)c2)cc1-c1ccc2cnncc2c1` registered a melting point of 270 to 272 °C.

Turning to `CC(=O)OC1C(COC(=O)c2ccccc2)OC(n2ccc(=O)[nH]c2=O)C1F` (configuration not stated), the melting point is 179 to 180 °C.

`CC(C)(C)[Si](C)(C)OC1CN(c2ccc(NC(=O)OCc3ccccc3)cc2F)C1` gave a melting point of 91 to 93 °C.

For `Nc1nc2ncnc(NCc3ccco3)c2[nH]1`, the melting point is 128 to 130 °C.

`COc1cc(C(=O)NC2CC(C)(C)N(C)C(C)(C)C2)ccc1-c1nc2cc(Cl)c(Cl)cc2[nH]1` came in with a melting point of 285 to 286 °C.

Compound `O=C(O)c1cc(C(=O)O)c2c(c1)C(C(=O)O)CCN2` (configuration not stated) came in with a melting point of 240 to 241 °C.

Regarding `CC(C)NC1C(n2cccn2)=NNN1S` (configuration not stated), the melting point was in the range of 80 to 85 °C.

In turn, `O=C(O)c1ccc(N2CCOCC2)c(NC(=O)C(CS)Cc2ccccc2)c1` (configuration not stated) registered a melting point of 218 to 222 °C.

As for `COc1ccc(C(=O)c2c(N(C)C)sc3cc(OCc4ccccc4)ccc23)cc1OC`, the melting point is 69 to 72 °C.

On to `CC(C(=O)O)C1CC(=O)N(c2ccc(Cl)cc2)C1` (configuration not stated), for which the melting point is 63 to 67 °C.

Consider `CC#CCOc1ccc(S(=O)C(C(=O)NO)C2CCCCC2)cc1` (configuration not stated), for which the melting point was found to be 188 °C.

`O=C(O)c1c(-c2ccc(Cl)c(Cl)c2)csc1N1C(=O)c2ccccc2C1=O` showed a melting point of 198 to 199 °C.

For the compound `Nc1ccc(OCc2nc3ccccc3s2)cc1`, the melting point fell in the range of 87 to 89 °C.

Compound `CC(=O)SCc1ccccc1CCC(=O)Nc1cccc(C(=O)OCCBr)c1` had a melting point of 85 to 88 °C.

Compound `Cc1cc(OC(F)F)nc(NC(=O)NS(=O)(=O)c2cccnc2Cl)n1` came in with a melting point of 161 to 162 °C.

`O=[N+]([O-])c1cccc(-c2nnc(Cl)s2)c1` showed a melting point of 162 to 165 °C.

`COC(=O)C1(Cl)SC=CC1=O` (configuration not stated): the melting point was in the range of 70 to 71 °C.

`CN(C)CC/C=C1/c2cc(Br)ccc2COc2ccccc21` showed a melting point of 91 to 100 °C.

`O=C1c2ccccc2-c2c1c1ccccc1c(=O)n2CCCCNS(=O)(=O)c1ccc(Br)cc1`: the melting point was 176 to 177 °C.

In turn, `C#CCOc1nsc(SC(F)F)c1C#N` returned a melting point of 83 to 84 °C.

`COC(=N)c1sc2ccccc2c1O`: the melting point came to 201 °C.

In turn, `CCCn1c(=O)n(-c2ccc3c(c2)OCO3)c2ncccc21` displayed a melting point of 112 to 114 °C.

The compound `O=C(c1ccc(O)cc1)c1ccc([N+](=O)[O-])cc1` showed a melting point of 196 °C.

Take `CC1=C(C(=O)OCC(C)C)C(c2cccc([N+](=O)[O-])c2)c2c(nc(N3CCOCC3)nc2N2CCOCC2)N1` (configuration not stated): the melting point came to 214 °C.

The compound `CCCCCCC(C(=O)O)n1cnc(NC(=O)C2(O)c3ccccc3-c3ccccc32)c1` (configuration not stated) had a melting point of 128 °C.

As to `CCOC(=O)Cc1ccc(CCNC(=O)c2cc(C)ccc2OC)cc1`, the melting point lay in the range of 83 to 85 °C.

As to `O=C(NC1C=NC=CC1=O)c1ccccc1F` (configuration not stated), the melting point fell in the range of 116 to 117 °C.

The compound `CC(C)(C)C1Cn2c(nc3ccccc32)-c2ccccc2O1` (configuration not stated) returned a melting point of 149 to 150 °C.

In the case of `CC12CCC(C(=O)Nc3ccccc3C(c3ccc(O)cc3)c3ccc(O)cc3)(OC1=O)C2(C)C` (configuration not stated), the melting point was 229 to 231 °C.

On to `CSc1nccc(Oc2ccc(NC(=O)c3cc(F)cc(N4CCCCC4)c3)c3ccccc23)n1`, for which the melting point lay in the range of 130 to 132 °C.

As for `O=Cc1ccc2nccnc2c1`, the melting point worked out at 134 °C.

In turn, `N[C@@H](Cc1cccc(OC(F)(F)C(F)F)c1)[C@H](O)c1ccc(F)nc1` (racemic) registered a melting point of 103 to 104 °C.

Take `COC(=O)c1cc(CCN(C)CCCC(C#N)(c2ccc(OC)c(OC)c2)C(C)C)ccc1OC` (configuration not stated): the melting point is 76 to 81 °C.

`Cc1ccc(S(=O)(=O)OCCCOc2ccc([N+](=O)[O-])c(CS(=O)(=O)c3cccc4ccccc34)c2)cc1` displayed a melting point of 162 to 164 °C.

The compound `O=[N+]([O-])c1ccc(O)c(Cn2c(=S)sc3ccccc32)c1` had a melting point of 231 °C.

For the compound `CC(C)CC(=O)Nc1cc(-c2ccnc3c(C(=O)c4cccs4)cnn23)ccc1F`, the melting point lay within 192 to 194 °C.

Regarding `CCOc1ccccc1N(C(=O)C(N)=O)c1nc(N(CC)CC)nc(N(CC)CC)n1`, the melting point is 97 to 100 °C.

`Brc1ccc(-c2coc3c2ccc2ccccc23)cc1` came in with a melting point of 125 to 130 °C.

Take `COc1ccccc1CCN(CCCCC(=O)c1ccc2c(c1)CCN2C(=O)Nc1ccccc1)C(=O)OC(C)(C)C`: the melting point is 136 to 137 °C.

`CC(=O)C(C)Oc1cc(N)c(Cl)cc1C(=O)NCCN(C)C` (configuration not stated): the melting point lay in the range of 124 to 125 °C.

Consider `C#Cc1cccc(Nc2ncnc3[nH]cc(-c4ccc(Cl)cc4)c23)c1`, for which the melting point was in the range of 225 to 227 °C.

In the case of `O=C(O)CCCN1CCN2c3ccccc3Cc3ccccc3C2C1` (configuration not stated), the melting point lay in the range of 104 to 105 °C.

On to `COc1cc(N(C(=O)[C@@H](N)Cc2cnc[nH]2)S(=O)(=O)c2ccc3c(ccn3C)c2)cc(OC)c1OC`, for which the melting point was in the range of 175 to 177 °C.

`CC(=O)Nc1cc(F)ccc1C`: the melting point lay within 127 to 128 °C.

With `CCCCCC(C)Nc1nnc(-c2cccc(Oc3ccc(C(C)(C)C)cc3)c2)s1` (configuration not stated), the melting point lay in the range of 115 to 116 °C.

For the compound `CCC(=O)c1cc(C#N)c(=O)[nH]c1CC`, the melting point lay within 243 to 245 °C.

`COC(=O)[C@]12CN(Cc3ccccc3)C[C@@H]1C(c1ccc(OC)cc1)=CC[C@@]2(C)c1ccccc1` (racemic) showed a melting point of 132 °C.

For `N=C(Nc1ccc(F)c(NC(=O)/C=C/c2ccccc2Cl)c1)c1ccccc1`, the melting point was in the range of 189 to 191 °C.

In turn, `Cc1ccc(-c2noc3c(Cl)c(OCC(=O)O)ccc23)s1` returned a melting point of 235 to 238 °C.

`COC(=O)c1cccc(NC(N)=NC#N)c1`: the melting point was in the range of 203 to 204 °C.

Take `Cn1c(C(F)(F)F)cc(=O)n(-c2ccc3snc(C(Br)C#N)c3c2)c1=O` (configuration not stated): the melting point lay within 185 to 187 °C.

`COc1nc(C)c(C)cc1NC(=O)N1CCN(C(c2ccccc2)c2ccccc2)CC1` yielded a melting point of 132 to 134 °C.

`COc1cc2c(cc1OC)N(C(=O)OCc1ccccc1)C(C)C(=CO)C2=O` (configuration not stated) returned a melting point of 106 to 110 °C.

Turning to `CCCCN(C1=C(O)C[C@@](CCc2cccc(O)c2)(C2CCCC2)OC1=O)c1ccccc1`, the melting point was in the range of 64 to 66 °C.

In turn, `Cc1cc(C#N)c(=O)[nH]c1C` had a melting point of 258 to 263 °C.

`CCc1cc(Oc2ccc(S(C)(=O)=O)nc2)cc2cc(C3=NCC(CC(=O)NC)S3)[nH]c12` (configuration not stated) displayed a melting point of 189 to 190 °C.

Compound `CC(=O)NS(=O)(=O)c1ccc(-n2sc3ccccc3c2=O)cc1` displayed a melting point of 254 to 255 °C.

As for `O=C(Nc1ccc(CN2C(=O)[C@H]3CCC[C@H]3N(C(=O)CN3C(=O)c4ccccc4C3=O)c3ccccc32)cc1)c1ccccc1` (relative stereo), the melting point lay in the range of 252 to 255 °C.

As for `O=CN1CCN(c2ccc3cc(F)ccc3n2)CC1`, the melting point is 110 to 111 °C.

Compound `CSc1nc(O)c(C#N)n1C(C)C` had a melting point of 196 to 198 °C.

Regarding `O=P1(c2ccc(Oc3ccccc3)cc2)c2ccccc2CN1c1ccccc1` (configuration not stated), the melting point lay within 207 to 208 °C.

Compound `C#CCOc1cc(C(=O)O)cc([N+](=O)[O-])c1-c1ccccc1` had a melting point of 145 to 147 °C.

Regarding `Cn1c2ccccc2c2nc3c(C=O)cccc3nc21`, the melting point lay within 219 to 220 °C.

`CC(C)(C)OC(=O)[C@@H]1CCCN1C(=O)C1CCC1SC(=O)c1ccccc1` (some centres not stated) yielded a melting point of 102 to 103 °C.

As to `COC(=O)[C@H]1Cc2c([nH]c3ccccc23)[C@@H](c2ccc3occc3c2)N1C(=O)[C@H](C)NC(=O)OCc1ccccc1`, the melting point fell in the range of 91 to 92 °C.
